Consider 1 compound from ChEMBL document CHEMBL4376829, “Discovery and biological evaluation of vinylsulfonamide derivatives as highly potent, covalent TEAD autopalmitoylation inhibitors” (Eur J Med Chem, 2019).

Activity calls are given as the source filed them. No cut-off for these calls is given here.

Test [1] has as its target Tyrosine-protein kinase Fes/Fps (Homo sapiens) (UniProt P07332). Nature of the test: Inhibition of recombinant human FES (2 to end residues) at 10 uM using poly(Glu, Tyr) 4:1 as substrate measured after 40 mins in presence of [gamma33P]ATP by scintillation counting method relative to control.
Test [2] addresses Tyrosine-protein kinase Fgr (Homo sapiens) (UniProt P09769). Nature of the test: Inhibition of recombinant human FGR (2 to end residues) at 10 uM using poly(Glu, Tyr) 4:1 as substrate after 40 mins in presence of [gamma33P]ATP by scintillation counting method relative to control.
The target in test [3] is Transcriptional enhancer factor TEF-3 (Homo sapiens, UniProt Q15561). Nature of the test: Inhibition of FITC-labeled YAP peptide (61 to 100 residues) binding to TEAD4 (unknown origin) preincubated for 1 hr followed by FITC-labeled YAP peptide addition and measured after 30 mins by fluorescence polarization assay.
Test [4] concerns the target Tyrosine-protein kinase BTK (Homo sapiens) (UniProt Q06187). Nature of the test: Inhibition of full-length recombinant human BTK at 10 uM using KVEKIGEGTYGVVYK as substrate measured after 40 mins in presence of [gamma33P]ATP by scintillation counting method relative to control.
The target of test [5] is Serine/threonine-protein kinase D2 (Homo sapiens) (UniProt Q9BZL6). Put plainly: Inhibition of full-length recombinant human PKD2 at 10 uM using KKLNRTLSVA as substrate after 40 mins by in presence of [gamma33P]ATP by scintillation counting method relative to control.
The target of test [6] is Protein kinase C alpha type (Homo sapiens) (UniProt P17252). Put plainly: Inhibition of full-length recombinant human PKCalpha at 10 uM using histone H1 as substrate after 40 mins by in presence of [gamma33P]ATP by scintillation counting method relative to control.
Test [7] relates to Ribosomal protein S6 kinase beta-1 (Homo sapiens), P23443 [T412E]. Put plainly: Inhibition of recombinant human p70S6K T412E mutant (1 to 421 residues) at 10 uM using KKRNRTLTV as substrate measured after 40 mins in presence of [gamma33P]ATP by scintillation counting method relative to control.
Test [8] has as its target Cyclin-dependent kinase 14/Cyclin-Y (Homo sapiens) (UniProt O94921+Q8ND76). Nature of the test: Inhibition of human CDK14/cyclinY at 10 uM by radiometric assay relative to control. It is filed as protein-complex assay.
In test [9] the target is Ribosomal protein S6 kinase alpha-4 (Homo sapiens) (UniProt O75676). Nature of the test: Inhibition of recombinant human MSK2 (2 to end residues) at 10 uM using GRPRTSSFAEGKK as substrate measured after 40 mins in presence of [gamma33P]ATP by scintillation counting method relative to control.
Test [10] concerns the target Serine/threonine-protein kinase 4 (Homo sapiens) (UniProt Q13043). Nature of the test: Inhibition of recombinant full-length human MST1 at 10 uM using KKSRGDYMTMQIG as substrate measured after 40 mins in presence of [gamma33P]ATP by scintillation counting method relative to control.
Test [11] concerns the target Leukocyte tyrosine kinase receptor (Homo sapiens) (UniProt P29376). Put plainly: Inhibition of recombinant human LTK (450 to end residues) at 10 uM using GEEPLYWSFPAKKK as substrate measured after 40 mins in presence of [gamma33P]ATP by scintillation counting method relative to control.
The target of test [12] is Insulin-like growth factor 1 receptor (Homo sapiens) (UniProt P08069). Put plainly: Inhibition of recombinant human IGF1R (959 to end residues) at 10 uM using KKKSPGEYVNIEFG as substrate after 40 mins in presence of [gamma33P]ATP by scintillation counting method relative to control.
Test [13] has as its target Epidermal growth factor receptor (Homo sapiens) (UniProt P00533). Nature of the test: Inhibition of recombinant human EGFR (696 to end residues) at 10 uM using poly(Glu, Tyr) as substrate measured after 40 mins in presence of [gamma33P]ATP by scintillation counting method relative to control.
Test [14] has as its target MAP kinase-interacting serine/threonine-protein kinase 2 (Homo sapiens) (UniProt Q9HBH9). Nature of the test: Inhibition of recombinant full-length human MNK2 at 10 uM using myelin basic protein as substrate measured after 40 mins in presence of [gamma33P]ATP by scintillation counting analysis relative to control.
The target of test [15] is Beta-adrenergic receptor kinase 1 (Homo sapiens) (UniProt P25098). Put plainly: Inhibition of full length recombinant human GRK2 at 10 uM using casein as substrate after 40 mins in presence of [gamma33P]ATP by scintillation counting method relative to control.
In test [16] the target is Protein arginine N-methyltransferase 1 (Homo sapiens) (UniProt Q99873). Put plainly: Inhibition of human PRMT1 at 10 uM after 1 hr by radioisotope-based assay relative to control.
Test [17] deals with Transcriptional enhancer factor TEF-3 (Homo sapiens), Q15561 [C410A]. Put plainly: Binding affinity to TEAD4-YBD C410A mutant (unknown origin) assessed as change in melting temperature by SYPRO-dye based thermal shift assay.
For test [18], the target named is Tyrosine-protein kinase SYK (Homo sapiens) (UniProt P43405). Put plainly: Inhibition of full length recombinant human Syk at 10 uM using poly(Glu, Tyr) 4:1 as substrate after 40 mins in presence of [gamma33P]ATP by scintillation counting method relative to control.
In test [19] the target is Serine/threonine-protein kinase NIM1 (Homo sapiens) (UniProt Q8IY84). Nature of the test: Inhibition of recombinant human full length NIM1 at 10 uM using KKKVSRSGLYRSPSMPENLNRPR as substrate incubated for 40 mins in presence of [gamma-33P]-ATP by scintillation counting method relative to control.
Test [20] deals with Catenin beta-1 (Homo sapiens) (UniProt P35222). Put plainly: Inhibition of beta catenin (unknown origin) expressed in HEK293T cells at 10 to 20 uM by dual-TOPFlash reporter gene assay. It is filed as cell-based. A general note: Reporter assays use an easily measured gene product as a stand-in for the process of interest.
The target in test [21] is Cytoplasmic tyrosine-protein kinase BMX (Homo sapiens) (UniProt P51813). Put plainly: Inhibition of full-length recombinant human BMX at 10 uM using poly(Glu, Tyr) 4:1 as substrate measured after 40 mins in presence of [gamma33P]ATP by scintillation counting method relative to control.
Test [22] deals with Bromodomain-containing protein 4 (Homo sapiens) (UniProt O60885). Nature of the test: Inhibition of human BRD4-BD1 at 10 uM relative to control.
Test [23] addresses Ephrin type-A receptor 5 (Homo sapiens) (UniProt P54756). Nature of the test: Inhibition of human EPHA5 (655 to 956 residues) using poly (Glu, Tyr) 4:1 as substrate at 10 uM after 40 mins in presence of [gamma-33P]-ATP by scintillation counting relative to control.
Test [24] concerns the target Mitogen-activated protein kinase kinase kinase kinase 3 (Homo sapiens) (UniProt Q8IVH8). Nature of the test: Inhibition of recombinant human MAP4K3 (1 to 291 residues) at 10 uM using RLGRDKYKTLRQIRQ as substrate measured after 40 mins in presence of [gamma33P]ATP by scintillation counting method relative to control.

Chain of Serine/threonine-protein kinase 4 (Homo sapiens) (Q13043 whole entry): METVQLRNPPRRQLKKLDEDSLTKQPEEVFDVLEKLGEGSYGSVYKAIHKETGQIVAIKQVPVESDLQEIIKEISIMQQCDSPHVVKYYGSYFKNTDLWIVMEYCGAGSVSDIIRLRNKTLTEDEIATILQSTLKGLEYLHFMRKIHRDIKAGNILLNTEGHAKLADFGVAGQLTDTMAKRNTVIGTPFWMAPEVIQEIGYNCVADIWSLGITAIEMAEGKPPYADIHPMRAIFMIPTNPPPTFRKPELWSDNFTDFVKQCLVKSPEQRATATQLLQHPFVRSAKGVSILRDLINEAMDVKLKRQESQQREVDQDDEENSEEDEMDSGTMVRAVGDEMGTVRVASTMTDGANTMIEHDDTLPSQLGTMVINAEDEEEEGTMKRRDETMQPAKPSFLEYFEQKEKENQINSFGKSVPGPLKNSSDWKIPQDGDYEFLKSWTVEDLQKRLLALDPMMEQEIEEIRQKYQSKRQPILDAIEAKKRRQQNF
Chain of Protein arginine N-methyltransferase 1 (Homo sapiens) (Q99873 whole entry, looked up): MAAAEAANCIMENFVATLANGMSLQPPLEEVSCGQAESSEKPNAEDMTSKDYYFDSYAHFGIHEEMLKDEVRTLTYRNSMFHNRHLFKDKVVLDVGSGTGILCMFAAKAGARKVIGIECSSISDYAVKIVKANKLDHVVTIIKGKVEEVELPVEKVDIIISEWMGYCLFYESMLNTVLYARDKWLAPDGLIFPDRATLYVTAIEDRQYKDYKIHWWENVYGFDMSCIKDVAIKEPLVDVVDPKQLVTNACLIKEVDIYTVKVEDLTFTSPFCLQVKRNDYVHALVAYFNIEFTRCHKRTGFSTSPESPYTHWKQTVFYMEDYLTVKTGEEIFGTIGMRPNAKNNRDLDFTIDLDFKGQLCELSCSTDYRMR
Chain of Ephrin type-A receptor 5 (Homo sapiens) (P54756 whole entry, the tested form may be a part): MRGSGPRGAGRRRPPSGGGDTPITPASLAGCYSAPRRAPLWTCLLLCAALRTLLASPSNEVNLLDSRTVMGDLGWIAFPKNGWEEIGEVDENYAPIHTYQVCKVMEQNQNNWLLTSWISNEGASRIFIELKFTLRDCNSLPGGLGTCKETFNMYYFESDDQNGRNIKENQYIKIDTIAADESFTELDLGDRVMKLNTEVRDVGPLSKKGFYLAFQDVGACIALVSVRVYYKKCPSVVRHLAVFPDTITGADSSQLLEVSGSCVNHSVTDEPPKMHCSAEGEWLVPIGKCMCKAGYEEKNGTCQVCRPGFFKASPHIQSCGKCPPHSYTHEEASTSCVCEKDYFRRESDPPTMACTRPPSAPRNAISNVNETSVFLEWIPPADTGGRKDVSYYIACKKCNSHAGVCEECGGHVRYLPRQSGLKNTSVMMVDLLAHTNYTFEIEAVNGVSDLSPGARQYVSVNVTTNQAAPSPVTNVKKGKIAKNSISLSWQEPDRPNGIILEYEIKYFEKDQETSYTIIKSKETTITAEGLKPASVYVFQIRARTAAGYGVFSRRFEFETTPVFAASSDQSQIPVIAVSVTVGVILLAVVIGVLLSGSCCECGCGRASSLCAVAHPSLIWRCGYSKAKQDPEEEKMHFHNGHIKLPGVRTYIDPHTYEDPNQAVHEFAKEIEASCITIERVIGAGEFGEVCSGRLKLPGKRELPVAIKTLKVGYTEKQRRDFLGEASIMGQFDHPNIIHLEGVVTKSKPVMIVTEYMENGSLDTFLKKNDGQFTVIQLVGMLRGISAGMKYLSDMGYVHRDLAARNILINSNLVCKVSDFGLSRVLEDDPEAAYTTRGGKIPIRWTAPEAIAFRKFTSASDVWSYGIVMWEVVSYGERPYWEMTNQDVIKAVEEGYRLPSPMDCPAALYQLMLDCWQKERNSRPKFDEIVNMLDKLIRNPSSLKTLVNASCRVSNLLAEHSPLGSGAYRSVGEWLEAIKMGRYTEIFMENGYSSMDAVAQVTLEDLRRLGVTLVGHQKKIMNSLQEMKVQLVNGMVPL
Chain of Leukocyte tyrosine kinase receptor (Homo sapiens) (P29376 whole entry): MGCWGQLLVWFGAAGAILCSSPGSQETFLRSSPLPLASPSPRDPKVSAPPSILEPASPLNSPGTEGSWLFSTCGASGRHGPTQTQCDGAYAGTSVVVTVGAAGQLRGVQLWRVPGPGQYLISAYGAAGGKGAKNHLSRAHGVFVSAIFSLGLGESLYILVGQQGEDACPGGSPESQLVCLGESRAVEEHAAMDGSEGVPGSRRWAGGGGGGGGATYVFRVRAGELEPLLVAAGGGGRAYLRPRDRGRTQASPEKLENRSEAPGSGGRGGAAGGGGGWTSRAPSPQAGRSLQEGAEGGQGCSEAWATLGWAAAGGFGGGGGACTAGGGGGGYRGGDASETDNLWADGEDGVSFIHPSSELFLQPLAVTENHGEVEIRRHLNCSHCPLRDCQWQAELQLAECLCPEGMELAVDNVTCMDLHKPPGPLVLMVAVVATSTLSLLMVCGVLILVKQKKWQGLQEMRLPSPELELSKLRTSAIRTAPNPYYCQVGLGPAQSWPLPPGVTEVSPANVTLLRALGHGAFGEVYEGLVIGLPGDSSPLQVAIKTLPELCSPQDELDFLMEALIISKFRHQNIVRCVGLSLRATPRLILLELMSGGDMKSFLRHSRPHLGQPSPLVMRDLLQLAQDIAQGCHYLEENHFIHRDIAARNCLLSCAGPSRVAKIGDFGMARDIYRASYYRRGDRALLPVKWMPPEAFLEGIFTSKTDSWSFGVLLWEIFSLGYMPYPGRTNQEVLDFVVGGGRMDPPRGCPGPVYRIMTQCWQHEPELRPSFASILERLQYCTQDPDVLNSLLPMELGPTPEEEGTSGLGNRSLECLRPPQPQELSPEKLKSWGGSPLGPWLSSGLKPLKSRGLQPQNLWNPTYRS
Chain of Epidermal growth factor receptor (Homo sapiens) (P00533 whole entry): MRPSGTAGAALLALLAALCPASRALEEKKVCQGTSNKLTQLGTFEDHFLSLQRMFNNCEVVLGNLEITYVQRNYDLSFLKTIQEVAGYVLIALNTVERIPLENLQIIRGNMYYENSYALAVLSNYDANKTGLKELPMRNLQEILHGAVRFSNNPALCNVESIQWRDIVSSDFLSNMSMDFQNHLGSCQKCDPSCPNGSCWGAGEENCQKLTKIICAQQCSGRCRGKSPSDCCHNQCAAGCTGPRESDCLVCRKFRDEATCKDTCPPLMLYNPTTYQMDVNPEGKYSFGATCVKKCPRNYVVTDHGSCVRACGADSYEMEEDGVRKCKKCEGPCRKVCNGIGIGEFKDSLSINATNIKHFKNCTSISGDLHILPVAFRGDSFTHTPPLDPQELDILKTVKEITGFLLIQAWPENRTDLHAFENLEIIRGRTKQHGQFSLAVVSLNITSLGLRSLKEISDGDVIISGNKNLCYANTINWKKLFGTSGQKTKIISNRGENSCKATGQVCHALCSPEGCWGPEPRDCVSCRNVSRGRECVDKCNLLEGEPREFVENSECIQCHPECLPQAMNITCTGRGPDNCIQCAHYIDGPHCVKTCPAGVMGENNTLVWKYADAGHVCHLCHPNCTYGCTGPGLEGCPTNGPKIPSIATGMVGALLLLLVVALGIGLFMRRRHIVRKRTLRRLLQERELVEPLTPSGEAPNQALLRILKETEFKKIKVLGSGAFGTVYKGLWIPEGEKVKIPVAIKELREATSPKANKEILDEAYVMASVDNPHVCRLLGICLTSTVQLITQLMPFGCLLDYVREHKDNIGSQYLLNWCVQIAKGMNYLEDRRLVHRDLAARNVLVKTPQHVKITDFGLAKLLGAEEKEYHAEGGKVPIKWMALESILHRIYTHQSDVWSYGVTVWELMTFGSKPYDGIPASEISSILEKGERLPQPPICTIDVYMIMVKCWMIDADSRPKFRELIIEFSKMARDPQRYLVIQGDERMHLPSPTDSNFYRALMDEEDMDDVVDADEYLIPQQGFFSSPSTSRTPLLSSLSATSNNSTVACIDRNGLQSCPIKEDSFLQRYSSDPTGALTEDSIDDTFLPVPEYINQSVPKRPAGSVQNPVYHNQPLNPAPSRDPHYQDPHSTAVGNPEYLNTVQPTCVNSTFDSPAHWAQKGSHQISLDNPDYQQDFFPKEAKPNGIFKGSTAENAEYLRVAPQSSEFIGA
Chain of Serine/threonine-protein kinase NIM1 (Homo sapiens) (Q8IY84 whole entry): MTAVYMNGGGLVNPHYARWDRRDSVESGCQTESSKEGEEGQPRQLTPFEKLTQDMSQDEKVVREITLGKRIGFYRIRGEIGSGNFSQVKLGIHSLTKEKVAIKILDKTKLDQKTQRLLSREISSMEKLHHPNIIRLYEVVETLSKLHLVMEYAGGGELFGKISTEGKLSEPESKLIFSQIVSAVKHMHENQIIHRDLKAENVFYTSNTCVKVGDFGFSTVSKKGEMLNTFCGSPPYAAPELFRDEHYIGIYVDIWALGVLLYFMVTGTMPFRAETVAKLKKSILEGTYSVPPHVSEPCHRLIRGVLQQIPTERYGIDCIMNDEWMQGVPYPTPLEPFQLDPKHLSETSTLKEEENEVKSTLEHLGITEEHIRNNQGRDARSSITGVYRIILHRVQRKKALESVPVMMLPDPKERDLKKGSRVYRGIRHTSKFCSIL

One may read the inhibition as the drop in the measured response relative to a control, in per cent. The term ΔTm denotes the change in melting temperature against a reference sample. For `C=CS(=O)(=O)Nc1ccc(Cc2ccc3ccccc3c2)cc1`, the inhibition in [1] was 0%; in [2] it was 15%; in [4] it was 5%; in test [5] it was -4%; in test [6] it was 3%; in test [7], 9%. Besides, the inhibition was 1% in test [8]; 12% in test [9]; 0% in test [10]; 7% in test [11]; -6% in test [12]; 13% in test [13]. For the same compound, the inhibition in test [14] was 7%; in test [15], -9%; in [16], 3%; in test [18] it was -4%; in [19] it was -5%; in [21], 19%. Besides, the results for the inhibition in test [22], in test [23] and in test [24] were 10%, 16% and 9%, respectively. Further, in test [3], the outcome was inactive. Also, in test [17], the ΔTm turned out to be 7.3 °C. The inhibition entry in test [20] was “inactive”.
